Reference: publication PMC4037324 (Drug metabolism letters, 2012)

What was measured:
[1] = molecular target: T1, cytochrome P450 2D6 (CYP2D6) (Homo sapiens, UniProt P10635); experiment: NADPH-dependent inactivation of bufuralol […]'-hydroxylation in CYP2D6 Supersomes; assay type: cell-based
Target sequence in this assay (P16435 2-677): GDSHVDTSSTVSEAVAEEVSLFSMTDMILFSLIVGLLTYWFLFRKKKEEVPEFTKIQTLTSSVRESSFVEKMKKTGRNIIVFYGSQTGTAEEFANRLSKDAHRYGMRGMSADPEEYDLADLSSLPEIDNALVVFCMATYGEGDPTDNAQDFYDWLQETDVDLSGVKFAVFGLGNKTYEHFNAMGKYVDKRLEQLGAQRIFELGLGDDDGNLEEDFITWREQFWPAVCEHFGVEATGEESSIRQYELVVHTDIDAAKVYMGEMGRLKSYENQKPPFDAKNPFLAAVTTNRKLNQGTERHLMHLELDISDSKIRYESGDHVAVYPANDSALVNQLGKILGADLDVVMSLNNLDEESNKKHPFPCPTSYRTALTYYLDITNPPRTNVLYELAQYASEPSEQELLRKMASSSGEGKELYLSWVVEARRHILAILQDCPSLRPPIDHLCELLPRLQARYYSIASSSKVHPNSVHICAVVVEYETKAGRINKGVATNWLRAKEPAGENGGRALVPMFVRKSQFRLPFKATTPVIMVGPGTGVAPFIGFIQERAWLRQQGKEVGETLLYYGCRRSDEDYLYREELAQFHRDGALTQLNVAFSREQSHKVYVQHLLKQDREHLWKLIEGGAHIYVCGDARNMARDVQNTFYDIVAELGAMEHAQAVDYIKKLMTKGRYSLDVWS
Target sequence in this assay (P10635 whole entry): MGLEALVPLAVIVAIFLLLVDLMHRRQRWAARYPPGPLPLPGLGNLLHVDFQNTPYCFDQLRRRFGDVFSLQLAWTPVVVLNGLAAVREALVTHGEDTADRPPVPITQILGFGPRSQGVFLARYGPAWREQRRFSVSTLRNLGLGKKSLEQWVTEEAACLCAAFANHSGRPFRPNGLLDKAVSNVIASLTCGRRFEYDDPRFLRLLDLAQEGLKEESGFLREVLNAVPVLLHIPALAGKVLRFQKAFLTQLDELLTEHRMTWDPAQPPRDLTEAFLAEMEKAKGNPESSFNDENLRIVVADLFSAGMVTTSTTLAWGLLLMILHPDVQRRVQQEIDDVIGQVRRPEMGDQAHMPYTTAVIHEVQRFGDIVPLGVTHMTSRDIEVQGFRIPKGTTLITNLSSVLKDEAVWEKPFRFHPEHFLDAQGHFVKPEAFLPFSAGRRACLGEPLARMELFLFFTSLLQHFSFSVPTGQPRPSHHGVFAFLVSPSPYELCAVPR

[2] = molecular target: T1, cytochrome P450 2D6 (CYP2D6); experiment: UV-vis spectral binding titration
Target sequence in this assay (P10635 whole entry): as above

Structure (SMILES)	partition ratio [1]	Kd [2] [µM]
CNC(C)Cc1ccc2c(c1)OCO2 (centres unmarked) [MDMA]	91	–
CCc1nc(C)c(CN2CCN(c3cc(C(F)(F)F)ccn3)CC2)[nH]1 [EMTPP]	–	29.8 ± 3.04
